# Paper PMC4282596 (Psychopharmacology, 2014)
# Target: T1, 5-HT2C receptor (Homo sapiens, UniProt P28335)
# T1 sequence (P28335 33-458): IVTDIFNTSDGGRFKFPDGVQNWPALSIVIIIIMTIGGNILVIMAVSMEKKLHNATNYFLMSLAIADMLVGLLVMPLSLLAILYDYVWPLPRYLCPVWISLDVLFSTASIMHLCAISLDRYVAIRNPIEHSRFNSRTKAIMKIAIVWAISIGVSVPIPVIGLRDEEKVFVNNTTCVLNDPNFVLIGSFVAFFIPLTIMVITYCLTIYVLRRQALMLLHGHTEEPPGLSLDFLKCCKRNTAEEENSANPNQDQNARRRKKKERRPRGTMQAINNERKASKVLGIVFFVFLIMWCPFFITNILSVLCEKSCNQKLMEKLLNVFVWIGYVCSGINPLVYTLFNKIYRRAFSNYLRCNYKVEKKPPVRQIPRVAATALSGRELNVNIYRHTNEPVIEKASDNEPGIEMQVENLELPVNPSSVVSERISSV
# Experiment: […]DOI radioligand competition binding on HEK-h5HT2C cell homogenate
smiles,measurement,value
CC(C)N(CCc1c[nH]c2ccccc12)C(C)C [DiPT],Ki,290 ± 110 nM
